ChEMBL document CHEMBL1833884, “Discovery of a brain-penetrant S1P₃-sparing direct agonist of the S1P₁ and S1P₅ receptors efficacious at low oral dose” (J Med Chem, 2011)
Values belong to the molecule of their own block, whether it stands above or below them. Active and inactive are the calls of the source. The rule behind the calls is not given here.

Assays:
[1] = molecular target: T1, Sphingosine 1-phosphate receptor 4 (Homo sapiens) (UniProt O95977); test: Agonist activity at human S1P4 expressed in CHO-K1 aequorin cells assessed as calcium accumulation of by luminescence assay in presence of cofactor coelenterazine relative to control; assay type: functional, cell-based
T1 sequence (whole entry): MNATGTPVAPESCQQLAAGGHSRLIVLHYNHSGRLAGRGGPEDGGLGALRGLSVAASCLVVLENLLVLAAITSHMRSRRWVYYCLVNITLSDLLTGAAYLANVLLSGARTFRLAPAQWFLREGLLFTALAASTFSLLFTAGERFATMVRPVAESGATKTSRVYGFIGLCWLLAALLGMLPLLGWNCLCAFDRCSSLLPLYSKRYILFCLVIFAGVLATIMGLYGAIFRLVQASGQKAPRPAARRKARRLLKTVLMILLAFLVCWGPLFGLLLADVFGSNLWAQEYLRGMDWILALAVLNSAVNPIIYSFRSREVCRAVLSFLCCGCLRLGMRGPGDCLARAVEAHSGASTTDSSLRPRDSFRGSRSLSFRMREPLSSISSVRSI

[2] = molecular target: T2, Sphingosine 1-phosphate receptor 5 (Homo sapiens, UniProt Q9H228); test: Agonist activity at human S1P5 receptor expressed in CHO-K1 aequorin cells assessed as calcium accumulation of by luminescence assay in presence of cofactor coelenterazine relative to control; assay type: functional, cell-based
[3] = molecular target: T3, Sphingosine 1-phosphate receptor 1 (Homo sapiens, UniProt P21453); test: Agonist activity at human S1P1 receptor expressed in CHO-K1 EDG1 cells expressing beta-arrestin 2 after 105 mins by chemi-luminescence assay relative to control; assay type: functional, cell-based
[4] = molecular target: T4, Sphingosine 1-phosphate receptor 4 (Homo sapiens, UniProt O95977); test: Agonist activity at human S1P4 expressed in CHO-K1 aequorin cells assessed as calcium accumulation of by luminescence assay in presence of cofactor coelenterazine; assay type: functional, cell-based
T4 sequence (O95977 whole entry): T1 sequence (whole entry)

[5] = molecular target: T5, Sphingosine 1-phosphate receptor 3 (Homo sapiens, UniProt Q99500); test: Agonist activity at human S1P3 receptor expressed in RBL cells assessed as [35S]GTPgammaS binding after 3 hrs by radiometric assay relative to control; assay type: functional, cell-based
[6] = Bioavailability in CD rat at 1 mg/kg, […]; assay type: ADME, organism-based; conditions: in vivo
[7] = Chromatographic hydrophobicity index, log D of the compound at pH 7.4; assay type: physicochemical; conditions: buffer
[8] = molecular target: Voltage-gated inwardly rectifying potassium channel KCNH2 (Homo sapiens, UniProt Q12809)
[9] = system: Rattus norvegicus; test: Lymphopenic activity in Lewis rat assessed as reduction in blood lymphocyte counts at 1 mg/kg, po; assay type: functional; set-up: scale not given: the % may be the effect or the level left
[10] = Half life in CD rat at 1 mg/kg, iv; assay type: ADME, organism-based; set-up: dose 1 mg/kg, route intravenous; conditions: in vivo
[11] = molecular target: hERG (KCNH2) (Homo sapiens, UniProt Q12809); test: Inhibition of human ERG at 30 uM
[12] = Blood clearance in CD rat at 1 mg/kg, iv; assay type: ADME, organism-based; set-up: dose 1 mg/kg, route intravenous
[13] = Dissociation constant, pKa of the compound; assay type: physicochemical
[14] = Volume of distribution at steady state in CD rat at 1 mg/kg, iv; assay type: ADME, organism-based; set-up: dose 1 mg/kg, route intravenous; conditions: in vivo, read-out: Vdss
[15] = molecular target: T5, Sphingosine 1-phosphate receptor 3; test: Agonist activity at human S1P3 receptor expressed in RBL cells assessed as [35S]GTPgammaS binding after 3 hrs by radiometric assay; assay type: functional, cell-based
[16] = molecular target: T3, Sphingosine 1-phosphate receptor 1; test: Agonist activity at human S1P1 receptor expressed in CHO-K1 EDG1 cells expressing beta-arrestin 2 after 105 mins by chemi-luminescence assay; assay type: functional, cell-based
[17] = Chromatographic hydrophobicity index, log D of the compound at pH 10.5; assay type: physicochemical; conditions: buffer
[18] = Blood clearance in Beagle dog at 1 mg/kg, iv; assay type: ADME, organism-based, Canis lupus familiaris; set-up: dose 1 mg/kg, route intravenous
[19] = Solubility of the compound in fed state simulated intestinal fluid; assay type: physicochemical; conditions: simulated gi fluid
[20] = molecular target: Cytochrome P450 2C19 (Homo sapiens, UniProt P33261); test: Inhibition of CYP2C19; assay type: ADME
[21] = Intrinsic clearance in dog hepatocytes; assay type: ADME, cell-based, Canis lupus familiaris, Liver, Hepatocyte
[22] = Ratio of drug level in brain to blood in CD rat at 0.8 mg/kg/hr, iv measured up to 7 hrs; assay type: ADME, organism-based; set-up: route intravenous
[23] = molecular target: T6, Cytochrome P450 3A4 (Homo sapiens, UniProt P08684); test: Inhibition of CYP3A4 using vivid red as substrate; assay type: ADME
[24] = Intrinsic clearance in cynomolgus monkey hepatocytes; assay type: ADME, cell-based, Macaca fascicularis, Liver, Hepatocyte
[25] = Oral bioavailability in CD rat at 3 mg/kg; assay type: ADME, organism-based; conditions: in vivo
[26] = Oral bioavailability in Beagle dog at 1 mg/kg; assay type: ADME, organism-based, Canis lupus familiaris; conditions: in vivo
[27] = Chromatographic hydrophobicity index, log D of the compound at pH 2.0; assay type: physicochemical; conditions: buffer
[28] = Half life in Beagle dog at 1 mg/kg, iv; assay type: ADME, organism-based, Canis lupus familiaris; set-up: dose 1 mg/kg, route intravenous; conditions: in vivo
[29] = system: Hepatocyte; test: Intrinsic clearance in rat hepatocytes; assay type: ADME, cell-based, Liver
[30] = molecular target: Cytochrome P450 2D6 (Homo sapiens, UniProt P10635); test: Inhibition of CYP2D6; assay type: ADME
[31] = molecular target: T6, Cytochrome P450 3A4; test: Inhibition of CYP3A4 using vivid green as substrate; assay type: ADME
[32] = system: Hepatocyte; test: Intrinsic clearance in mouse hepatocytes; assay type: ADME, cell-based, Liver
[33] = Oral bioavailability in CD rat at 1 mg/kg; assay type: ADME, organism-based; conditions: in vivo
[34] = molecular target: Cytochrome P450 2C9 (Homo sapiens, UniProt P11712); test: Inhibition of CYP2C9; assay type: ADME
[35] = molecular target: T2, Sphingosine 1-phosphate receptor 5; test: Agonist activity at human S1P5 receptor expressed in CHO-K1 aequorin cells assessed as calcium accumulation of by luminescence assay in presence of cofactor coelenterazine; assay type: functional, cell-based
[36] = Volume of distribution at steady state in Beagle dog at 1 mg/kg, iv; assay type: ADME, organism-based, Canis lupus familiaris; set-up: dose 1 mg/kg, route intravenous; conditions: in vivo, read-out: Vdss
[37] = system: Rattus norvegicus; test: Lymphopenic activity in Lewis rat assessed as reduction in blood lymphocyte counts at 0.3 mg/kg, po; assay type: functional, organism-based; set-up: dose 0.3 mg/kg
[38] = system: Hepatocyte; test: Intrinsic clearance in human hepatocytes; assay type: ADME, cell-based, Liver
[39] = system: Plasma; test: Fraction unbound in CD rat plasma; assay type: ADME, cell-free
[40] = Plasma protein binding in CD rat at 1 mg/kg, iv; assay type: ADME, organism-based; set-up: dose 1 mg/kg, route intravenous; conditions: read-out: PPB
[41] = system: Rattus norvegicus; test: Metabolic stability of the compound in Lewis rat at 1 mg/kg, po; assay type: ADME, organism-based; set-up: dose 1 mg/kg, route oral; conditions: in vivo
[42] = system: MDR1 (P-glycoprotein), human; test: Efflux ratio of permeability in dog MDCK2 cells expressing human MDR1; assay type: ADME, cell-based, Canis lupus familiaris, MDCK-II; conditions: MDCK-MDR1
[43] = molecular target: T7, Sphingosine 1-phosphate receptor 2 (Homo sapiens, UniProt O95136); test: Agonist activity at human S1P2 receptor expressed in yeast MMY24 assessed as conversion of FDGlu to fluorescein after 24 hrs relative to control; assay type: functional
[44] = molecular target: T7, Sphingosine 1-phosphate receptor 2; test: Agonist activity at human S1P2 receptor expressed in yeast MMY24 assessed as conversion of FDGlu to fluorescein after 24 hrs; assay type: functional

Sequence of hERG (KCNH2) (Q12809 whole entry): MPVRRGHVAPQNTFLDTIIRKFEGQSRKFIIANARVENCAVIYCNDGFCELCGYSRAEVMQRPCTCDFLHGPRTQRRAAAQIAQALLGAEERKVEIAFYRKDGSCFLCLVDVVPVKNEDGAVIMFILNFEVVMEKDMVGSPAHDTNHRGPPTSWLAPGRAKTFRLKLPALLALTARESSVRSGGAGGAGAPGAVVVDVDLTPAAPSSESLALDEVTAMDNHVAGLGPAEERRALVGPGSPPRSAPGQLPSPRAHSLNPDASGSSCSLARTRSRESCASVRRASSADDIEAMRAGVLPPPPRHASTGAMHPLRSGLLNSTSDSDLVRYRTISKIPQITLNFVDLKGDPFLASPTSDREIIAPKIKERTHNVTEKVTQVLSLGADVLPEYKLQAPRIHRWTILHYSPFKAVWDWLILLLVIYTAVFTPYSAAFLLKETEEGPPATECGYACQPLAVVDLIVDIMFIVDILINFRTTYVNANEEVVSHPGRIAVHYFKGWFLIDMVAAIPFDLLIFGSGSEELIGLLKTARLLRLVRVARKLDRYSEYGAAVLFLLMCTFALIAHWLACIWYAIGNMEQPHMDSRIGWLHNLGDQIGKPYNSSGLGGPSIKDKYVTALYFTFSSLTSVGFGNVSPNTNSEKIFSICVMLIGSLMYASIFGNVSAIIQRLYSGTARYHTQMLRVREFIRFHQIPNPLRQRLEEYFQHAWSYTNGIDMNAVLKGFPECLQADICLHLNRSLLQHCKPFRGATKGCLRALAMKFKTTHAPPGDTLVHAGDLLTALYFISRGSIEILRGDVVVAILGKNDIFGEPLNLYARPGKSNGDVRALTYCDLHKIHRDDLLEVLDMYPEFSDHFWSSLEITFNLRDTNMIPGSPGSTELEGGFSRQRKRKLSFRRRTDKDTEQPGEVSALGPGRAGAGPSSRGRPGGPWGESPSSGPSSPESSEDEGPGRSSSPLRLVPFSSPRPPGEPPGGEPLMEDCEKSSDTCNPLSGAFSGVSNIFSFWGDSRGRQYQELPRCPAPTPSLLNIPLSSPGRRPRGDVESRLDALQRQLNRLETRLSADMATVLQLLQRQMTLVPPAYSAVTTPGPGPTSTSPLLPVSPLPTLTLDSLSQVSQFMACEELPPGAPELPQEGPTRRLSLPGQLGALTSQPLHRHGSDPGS
Sequence of Voltage-gated inwardly rectifying potassium channel KCNH2 (Q12809 whole entry): as above
T5 sequence (Q99500 whole entry): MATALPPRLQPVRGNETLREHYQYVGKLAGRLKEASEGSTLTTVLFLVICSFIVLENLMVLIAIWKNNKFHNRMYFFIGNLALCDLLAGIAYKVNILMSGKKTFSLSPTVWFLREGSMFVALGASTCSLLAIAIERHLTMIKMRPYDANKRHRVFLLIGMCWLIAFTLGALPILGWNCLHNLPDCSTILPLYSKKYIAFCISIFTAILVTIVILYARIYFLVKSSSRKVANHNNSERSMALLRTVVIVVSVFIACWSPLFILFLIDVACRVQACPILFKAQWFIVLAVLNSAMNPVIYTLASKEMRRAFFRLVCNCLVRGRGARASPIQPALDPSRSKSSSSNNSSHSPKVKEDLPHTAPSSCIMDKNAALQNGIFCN
T2 sequence (Q9H228 whole entry): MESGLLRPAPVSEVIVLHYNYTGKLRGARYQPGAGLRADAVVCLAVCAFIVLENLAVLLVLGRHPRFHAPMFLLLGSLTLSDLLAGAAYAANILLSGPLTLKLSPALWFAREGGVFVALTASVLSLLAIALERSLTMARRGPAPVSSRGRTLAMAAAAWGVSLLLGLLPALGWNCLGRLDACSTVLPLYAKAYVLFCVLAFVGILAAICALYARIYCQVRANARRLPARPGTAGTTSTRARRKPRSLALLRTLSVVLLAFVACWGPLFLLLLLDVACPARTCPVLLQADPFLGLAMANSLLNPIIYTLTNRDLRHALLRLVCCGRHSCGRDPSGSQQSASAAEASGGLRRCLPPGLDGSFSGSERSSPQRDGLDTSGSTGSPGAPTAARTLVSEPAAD
T3 sequence (P21453 whole entry): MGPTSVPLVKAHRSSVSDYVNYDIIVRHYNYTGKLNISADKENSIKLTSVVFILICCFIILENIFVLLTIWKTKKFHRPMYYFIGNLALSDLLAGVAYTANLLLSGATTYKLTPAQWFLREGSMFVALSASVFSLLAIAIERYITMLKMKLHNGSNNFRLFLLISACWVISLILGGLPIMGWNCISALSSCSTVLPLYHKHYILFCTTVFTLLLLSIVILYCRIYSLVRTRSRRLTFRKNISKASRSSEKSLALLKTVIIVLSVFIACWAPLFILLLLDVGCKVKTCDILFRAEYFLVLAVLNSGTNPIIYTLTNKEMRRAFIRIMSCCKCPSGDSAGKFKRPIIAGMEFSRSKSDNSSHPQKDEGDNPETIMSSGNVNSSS
T7 sequence (O95136 whole entry): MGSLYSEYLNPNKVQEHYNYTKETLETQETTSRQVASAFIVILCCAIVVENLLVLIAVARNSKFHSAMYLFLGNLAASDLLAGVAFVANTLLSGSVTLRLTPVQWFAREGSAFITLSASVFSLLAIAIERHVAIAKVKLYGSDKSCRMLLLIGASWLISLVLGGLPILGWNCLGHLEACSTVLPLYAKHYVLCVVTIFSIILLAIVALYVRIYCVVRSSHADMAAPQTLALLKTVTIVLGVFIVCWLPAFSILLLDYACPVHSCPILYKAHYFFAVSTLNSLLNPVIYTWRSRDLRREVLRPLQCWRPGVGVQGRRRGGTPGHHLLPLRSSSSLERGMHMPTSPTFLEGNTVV
T6 sequence (P08684 whole entry): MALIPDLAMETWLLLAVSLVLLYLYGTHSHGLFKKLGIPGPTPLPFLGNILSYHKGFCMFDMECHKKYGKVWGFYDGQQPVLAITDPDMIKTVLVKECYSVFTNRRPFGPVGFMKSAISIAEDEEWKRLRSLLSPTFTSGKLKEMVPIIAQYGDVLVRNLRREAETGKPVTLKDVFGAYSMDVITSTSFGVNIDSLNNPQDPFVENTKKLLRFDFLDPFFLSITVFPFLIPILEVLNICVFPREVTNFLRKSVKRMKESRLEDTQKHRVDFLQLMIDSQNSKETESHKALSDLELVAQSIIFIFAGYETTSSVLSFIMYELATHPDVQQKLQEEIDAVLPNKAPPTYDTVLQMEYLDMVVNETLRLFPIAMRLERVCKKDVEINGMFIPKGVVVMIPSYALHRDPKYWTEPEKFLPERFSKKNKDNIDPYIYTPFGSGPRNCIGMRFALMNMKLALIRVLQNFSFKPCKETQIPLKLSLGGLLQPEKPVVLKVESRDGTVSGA
Sequence of Cytochrome P450 2C9 (P11712 whole entry): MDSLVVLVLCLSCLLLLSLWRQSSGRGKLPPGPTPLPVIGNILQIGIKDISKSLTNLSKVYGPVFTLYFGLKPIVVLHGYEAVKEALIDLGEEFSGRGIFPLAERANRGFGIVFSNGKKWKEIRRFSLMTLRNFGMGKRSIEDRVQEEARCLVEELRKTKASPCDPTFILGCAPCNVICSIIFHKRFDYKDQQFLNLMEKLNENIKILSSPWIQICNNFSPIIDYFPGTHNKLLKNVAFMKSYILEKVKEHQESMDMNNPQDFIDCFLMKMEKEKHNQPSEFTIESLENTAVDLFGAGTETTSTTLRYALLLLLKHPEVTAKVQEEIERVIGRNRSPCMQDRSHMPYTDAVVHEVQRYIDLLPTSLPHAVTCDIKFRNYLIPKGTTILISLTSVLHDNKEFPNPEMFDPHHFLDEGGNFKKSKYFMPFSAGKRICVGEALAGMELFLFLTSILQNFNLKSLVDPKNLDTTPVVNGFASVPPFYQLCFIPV

Emax [1]: 48% | Emax [2]: 7.2% | Emax [3]: 99% | EC50 [4]: 0.2 µM | Emax [5]: 62%
SMILES: CCCCCCCCc1ccc(CC[C@](N)(CO)COP(=O)(O)O)cc1 [FTY720-P]

bioavailability [6]: 68% | chromatographic logD [7]: 2.74 | half-life [10]: 5.3 h | clearance [12]: 21 mL/min/kg | pKa [13]: 7.81 | Vd [14]: 7.6 L/kg | EC50 [15]: 15.8 µM | EC50 [16]: 0.02 µM
SMILES: CC(C)Oc1ccc(-c2nc(-c3ccc4c(c3)CCN(C(CO)CO)CC4)no2)cc1C#N
IC50 [8]: 17.8 µM | Activity [9]: 88% | inhibition at 30 µM [11]: 59%

chromatographic logD [17]: 2.99 | clearance [18]: 29 mL/min/kg | chromatographic logD [7]: 2.64 | solubility [19]: > 1 µg/mL | IC50 [20]: > 50 µM | CL [21]: 30 mL/min/g | Kp at 7 h [22]: 1.87 | IC50 [23]: 15.3 µM | half-life [10]: 1 h | CL [24]: 1.3 mL/min/g | bioavailability [25]: 52% | bioavailability [26]: 45% | chromatographic logD [27]: 0.98 | half-life [28]: 3 h | clearance [12]: 60 mL/min/kg | CL [29]: 3 mL/min/g | IC50 [30]: > 50 µM | IC50 [31]: 8.4 µM | CL [32]: 1.3 mL/min/g | bioavailability [33]: 52% | pKa [13]: 7.3 | IC50 [34]: 4.3 µM | EC50 [35]: 0.02 µM | Vd [14]: 4.1 L/kg | EC50 [15]: > 31.6 µM | Vd [36]: 7 L/kg | EC50 [16]: 0.00316 µM | CL [38]: 2 mL/min/g
SMILES: Cc1c(-c2noc(-c3ccc(OC(C)C)c(C#N)c3)n2)ccc2c1CCN(C(CO)CO)C2
IC50 [8]: 12.9 µM | Activity [9]: 96% | inhibition at 30 µM [11]: 58% | Activity [37]: Active

chromatographic logD [7]: 2.49 | half-life [10]: 0.6 h | clearance [12]: 87 mL/min/kg | pKa [13]: 7.28 | Vd [14]: 3.7 L/kg | EC50 [15]: 6.31 µM | EC50 [16]: 0.00794 µM
SMILES: CC(C)Oc1ccc(-c2nc(-c3ccc4c(c3)CCN(C(CO)CO)C4)no2)cc1C#N
IC50 [8]: 20 µM | Activity [9]: 49%

Fu [39]: 0.25% | chromatographic logD [17]: 3.73 | fraction unbound [40]: < 0.05 | chromatographic logD [7]: 2.65 | half-life [10]: 6.3 h | bioavailability [25]: 70% | chromatographic logD [27]: 1.34 | clearance [12]: 20 mL/min/kg | pKa [13]: 9.69 | Vd [14]: 9.7 L/kg | EC50 [15]: > 31.6 µM | EC50 [16]: 0.02 µM
SMILES: CC(C)Oc1ncc(-c2nc(-c3ccc4c(c3)CCNCC4)no2)cc1C#N
IC50 [8]: 3.16 µM

Stability [41]: Unstable | chromatographic logD [7]: 3.04 | half-life [10]: 2 h | bioavailability [25]: 38% | clearance [12]: 32 mL/min/kg | pKa [13]: 6.07 | Vd [14]: 4.4 L/kg | EC50 [15]: 25.1 µM | EC50 [16]: 0.00126 µM
SMILES: Cc1c(-c2noc(-c3ccc(OC(C)C)c(C#N)c3)n2)ccc2c1CCN(CC(=O)N[C@@H](C)CO)C2
IC50 [8]: > 10 µM | Activity [9]: 90% | inhibition at 30 µM [11]: 43%

chromatographic logD [7]: 2 | half-life [10]: 2.1 h | bioavailability [25]: 37% | clearance [12]: 21 mL/min/kg | pKa [13]: 6.22 | Vd [14]: 3.3 L/kg | EC50 [15]: > 100 µM | EC50 [16]: 0.02 µM
SMILES: Cc1c(-c2noc(-c3ccc(OC(C)C)c(C#N)c3)n2)cnc2c1CCN(C(CO)CO)C2
IC50 [8]: 12.6 µM | Activity [9]: 70%

chromatographic logD [7]: 2.41 | half-life [10]: 3.5 h | clearance [12]: 14 mL/min/kg | pKa [13]: 6.03 | Vd [14]: 3.3 L/kg | EC50 [15]: > 31.6 µM | EC50 [16]: 0.02 µM
SMILES: CC(C)Oc1ccc(-c2nc(-c3cccc4c3OCCN(C(CO)CO)C4)no2)cc1C#N
Activity [9]: 60%

Emax [1]: 3% | Emax [2]: 77% | efflux ratio [42]: 6 | Emax [3]: 94% | EC50 [4]: > 41.7 µM | Emax [5]: 35% | EC50 [35]: 0.162 µM | Emax [43]: 1% | EC50 [15]: > 31.6 µM | EC50 [16]: 0.00562 µM | EC50 [44]: > 33.1 µM
SMILES: Cc1c(-c2noc(-c3ccc(OC(C)C)c(C#N)c3)n2)ccc2c1CCN(CCC(=O)O)C2
